No end group written: not given here.
Legend:
USP11_DU^L208F/S242R = test: Isothermal titration calorimetry, USP11_DU double mutant; format: binding, human; conditions: 30 μM protein in PBS, peptide 300 or 600 μM, 25 °C, pocket-deficient double mutant, repeated at least twice
Description: (§1) ITC data were measured on a MicroCal VP-ITC or a PEAQ ITC instrument to obtain the binding parameters for peptide ligand–USP11_DU interactions. The sample cell contained 30 μM protein in PBS buffer. Each peptide (at a concentration of 300 or 600 μM) was titrated into the sample cell in 8-μl (VP-ITC) or 2-μl (PEAK ITC) injections at a temperature of 25 °C. Spacing was typically 180 s, and a stirring speed of 300 rpm was used. The data were analyzed using NITPIC ([52]), SEDPHAT ([53]), and GUSSI software. ITC experiments were repeated at least twice independently apart from the USP15_DU, USP4_DU, and the FL-USP11 titrations with FYLIR peptide, which were conducted once.

[1] = target: T1, full-length USP11 (FL-USP11) (Homo sapiens, UniProt P51784); test: Isothermal titration calorimetry, full-length USP11; conditions: ITC, 30 μM protein in PBS, 25 °C, one site binding model; n=1; read-out: dissociation constant
T1 construct: FYLIR peptide (AEGEFYKLKIRTPR) titrated into full-length USP11 (FL-USP11); His tag (inferred from nickel-chelate purification and the pColdI vector); made in house; host or cells: E. coli BL21-CodonPlus (pColdI), grown 72 h at 10 °C
Description: as §1

Panc1 cells [2] = test: Cell uptake (flow cytometry), Panc1; format: cell-based, human; conditions: flow cytometry
Description: Cells treated with GET-FYLIR or GET-Scrambled were analyzed on an Astrios cell sorter using a 488-nm […] laser (40,000 cells; gated on live cells by forward/side scatter). Gmean was used as the average cell intensity. All data sets were combined for the statistical analysis. A Sidak's multiple comparisons test was applied. N refers to the number of biological replicates.

Panc1 cells [3] = test: Cell viability (Presto Blue assay), Panc1; format: cell-based, human; conditions: Panc1, up to 10 μM, 24 h, Presto Blue, n=4 biological repeats (Fig. S6)
Description: Cells were plated in 96-well plates (2.5 × 10^4 cells/well) and treated with GET-FYLIR (0–50 μM) for 24 h. Cells were also treated with GET-Scrambled as a control. After treatment, cells were washed with PBS and then incubated for 15 min at 37 °C with a 100-μl Presto Blue solution (10% Presto Blue, Invitrogen in Hanks' balanced salt solution, Sigma). Change in the fluorescence was measured using a plate reader with the excitation/emission wavelengths set at 560/590 nm (Infinite® 200 PRO, TECAN), with untreated cells used as a control. All data sets were combined for the statistical analysis. A Sidak's multiple comparisons test was applied. N refers to the number of biological replicates.

[4] = system: USP11_DU (USP11 N-terminal DUSP–UBL domains); test: Next-generation phage display enrichment (two-proportion Z test, round 3 of panning); format: binding, human; conditions: enrichment on USP11_DU vs unrelated His-tagged control protein (flagellin fragment), after three rounds of panning, gpVIII phage-displayed nonapeptide
From the text: An NGPD approach was applied to the identification of USP11 ligands as schematically depicted in Fig. 1B. A randomized linear peptide library fused to the gpVIII protein was used to isolate peptides that interact with the USP11 N-terminal DU domains (DUSP and UBL domains in tandem; USP11_DU; Fig. 1A). After three biopanning rounds, phage ssDNA was extracted and purified, and peptide sequences were amplified and deep-sequenced. […] A graphical representation of the residue frequency within the motifs as computed by the Multiple EM for Motif Elicitation (MEME) algorithm ([33]) is shown in Fig. 1C. The thermodynamic binding parameters of synthetic peptides representative of both motifs, including the N-terminal phage protein sequence (AEGEF), AEGEFYKLKIRTPQ (referred to as FYLIR peptide) and AEGEFLELLKASRW (referred to as LXLL peptide), were determined by isothermal titration calorimetry (ITC). Peptides harboring either motif bound USP11_DU with dissociation constants of about 10 μM (8.86 ± 1.13 μM for AEGEFYKLKIRTPQ and 6.92 ± 2.25 μM for AEGEFLELLKASRW; Fig. 1D).
The peptide phage display library used for biopanning experiments (kindly provided by Professor Franco Felici, University of Molise, Italy; designated PC89VIII) is based on the PC89 phagemid vector ([50]) with a nonapeptide inserted at the N terminus of the phage major coat protein pVIII and a reported diversity of ∼10^7. The library was transformed into Escherichia coli TG1 supE thi-1 Δ(lac-proAB) Δ(mcrB-hsdSM)5(rK-mK) [F′traD36 proAB lacIqZΔM15], which was the strain used for all manipulations and phage rescue. Libraries were grown to mid-log phase (OD600 ∼0.6), superinfected with M13KO7 helper phage (Pharmacia LKB), and incubated overnight at 30 °C (250 rpm) to produce phage particles. Phage was harvested, and PEG was precipitated only for the first panning round. For all subsequent selection rounds (three in total), supernatant phage was used directly. Biopanning was carried out once, as described previously ([51]), and proteins were immobilized on cobalt beads (Dynabeads) (solution phase panning). A total of 100 μg of USP11_DU was immobilized for each round. In parallel, the phage isolated at each round against USP11_DU was also bound against an unrelated His-tagged control protein under the same conditions. This control protein was a fragment of flagellin, a virulence factor from E. coli O157:H7, amino acid residues 164–495, and the protein was used as it is unrelated to the target proteins and carried a C-terminal His tag. Bound phage were washed 10–20 times with PBS (10 mM phosphate buffer, pH 7.2–7.4, with 150 mM NaCl) plus 0.1% (v/v) Tween (PBST) and then PBS. Bound phage were eluted from the beads with 100 mM triethylamine and neutralized in 1 M Tris, pH 7.4. Half of the eluted phage was used for infection of TG1 cells, which were plated and used to make glycerol stocks.
The ssDNA of eluted phage for round 3 of selection against the USP11_DU target and the control protein was extracted and purified using the QIAprep Spin M13 kit. Subsequently, phage ssDNA was precipitated with ethanol and stored as a dry pellet to be used as a PCR template. For the amplification of the unknown peptide sequences, a two-step PCR strategy was followed, as described previously ([32]). The strategy produced an amplicon of ∼330 bp, and each sample contained a unique barcoded sequence. Each sample's DNA concentration was determined by the Agilent 2100 Bioanalyzer using the DNA 1000 kit. Based on the concentration readings for the peak of interest, samples were pooled in equal amounts, purified by the Agencourt AMPure XP kit, and run on a 2% (w/v) agarose gel. The band of ∼330 bp was excised from the gel and purified using the NucleoSpin Gel and PCR Clean-up kit. Finally, the concentration and size of the pooled DNA were measured on a Bioanalyzer. NGPD was carried out once for each round of panning. […]

T1 sequence (P51784 44-963 limits assumed): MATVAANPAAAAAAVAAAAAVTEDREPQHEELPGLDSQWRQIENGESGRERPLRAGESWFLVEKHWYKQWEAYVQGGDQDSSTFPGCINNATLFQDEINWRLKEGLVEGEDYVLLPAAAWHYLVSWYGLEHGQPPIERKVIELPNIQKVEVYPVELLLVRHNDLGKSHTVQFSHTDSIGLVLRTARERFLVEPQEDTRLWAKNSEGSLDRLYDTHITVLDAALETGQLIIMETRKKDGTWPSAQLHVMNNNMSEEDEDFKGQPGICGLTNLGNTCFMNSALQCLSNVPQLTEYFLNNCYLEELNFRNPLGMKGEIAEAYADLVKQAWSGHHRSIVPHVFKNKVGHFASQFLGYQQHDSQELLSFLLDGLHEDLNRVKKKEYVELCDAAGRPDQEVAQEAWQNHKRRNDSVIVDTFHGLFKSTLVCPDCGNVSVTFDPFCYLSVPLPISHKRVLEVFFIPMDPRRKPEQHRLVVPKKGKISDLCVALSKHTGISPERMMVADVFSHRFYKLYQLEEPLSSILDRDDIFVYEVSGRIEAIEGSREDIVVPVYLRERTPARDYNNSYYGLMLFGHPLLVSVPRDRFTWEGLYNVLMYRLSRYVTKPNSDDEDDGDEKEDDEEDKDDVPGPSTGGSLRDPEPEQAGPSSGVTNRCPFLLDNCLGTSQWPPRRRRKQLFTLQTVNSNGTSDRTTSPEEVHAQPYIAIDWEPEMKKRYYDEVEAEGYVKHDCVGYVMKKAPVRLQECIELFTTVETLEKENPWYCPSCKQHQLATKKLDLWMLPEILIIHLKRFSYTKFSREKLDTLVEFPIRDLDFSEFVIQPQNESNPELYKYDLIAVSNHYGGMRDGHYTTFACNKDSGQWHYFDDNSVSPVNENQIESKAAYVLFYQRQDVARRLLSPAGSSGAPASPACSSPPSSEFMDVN

Row | Substance | Z score [4] | further results
1 | AEGEFLRLLNFTKP [peptide harboring motif 2 (LXLL)] |  | binding by ITC (USP11_DU^L208F/S242R): abolished
2 | AEGEFYKLKIRTPR-NH2 [AEGEFYKLKIRTPR] |  | Kd [1]: ~12.5 µM
3 | APKFEIRRGTYKLE [GET-Scrambled] |  | uptake profile, NIH3T3 versus Panc1 (Panc1 cells [2]; 1 μM and 5 μM, 1 or 24 h): no difference in the uptake profile between NIH3T3 and Panc1 cells; cellular delivery (Panc1 cells [2]; NIH3T3 and Panc1, 1 and 5 μM): efficiently delivered; cell viability (Panc1 cells [3]): no significant effect
4 | CKLKIRTPQ | 5.6 | 
5 | HKLKIRTPQ | 5.5 | 
6 | LALIKRQPL | 18.1 | 
7 | LALLMRQRP | 19.0 | 
8 | LAMLTRGRP | 3.0 | 
9 | LELARRSPV | 4.1 | 
10 | LELLEASRW | 5.0 | 
11 | LELLKALRW | 3.0 | 
12 | LELLKAPRW | 3.6 | 
13 | LELLKASRR | 4.8 | 
14 | LELLKASRW | 108.7 | 
15 | LELLKVSRW | 3.0 | 
16 | LELLRASRW | 4.6 | 
17 | LELPKASRW | 4.5 | 
18 | LELVCRSPV | 2.8 | 
19 | LELVHRSPV | 4.1 | 
20 | LELVRCSPV | 3.2 | 
21 | LELVRHSPV | 3.0 | 
22 | LELVRRSPA | 3.7 | 
23 | LELVRRSPV | 89.0 | 
24 | LELVRRSSV | 3.0 | 
25 | LEPVRRSPV | 4.1 | 

Row | Substance | Z score [4] | further results
26 | LESLKASRW | 4.9 | 
27 | LGLLKASRW | 4.4 | 
28 | LQLLALSRA | 3.6 | 
29 | LQLLALSRT | 70.9 | 
30 | LQLLAPSRT | 3.0 | 
31 | LQLPALSRT | 4.1 | 
32 | LRLLALSRT | 4.4 | 
33 | NKLKIRTPQ | 2.8 | 
34 | PELLKASRW | 3.6 | 
35 | PQLLALSRT | 3.9 | 
36 | YELKIRTPQ | 4.6 | 
37 | YKLEIRTPQ | 5.6 | 
38 | YKLKIQTPQ | 4.0 | 
39 | YKLKIRAPQ | 7.9 | 
40 | YKLKIRIPQ | 4.4 | 
41 | YKLKIRTLQ | 3.7 | 
42 | YKLKIRTPL | 3.2 | 
43 | YKLKIRTPQ | 168.4 | 
44 | YKLKIRTPR | 7.1 | 
45 | YKLKIRTSQ | 3.6 | 
46 | YKLKTRTPQ | 4.5 | 
47 | YKLKVRTPQ | 5.7 | 
48 | YKLRIRTPQ | 5.8 | 
49 | YKPKIRTPQ | 6.6 | 
50 | YRLKIRTPQ | 5.5 | 
